What was measured:
E. faecalis ATCC 29212 = assay: Agar-well diffusion antimicrobial screening; assay type: cell-based; conditions: Enterococcus faecalis, ATCC29212; 50 μL of DMSO stock (concentration in c1) per 5 mm well, 18 h at 35 °C; standard ampicillin 10 μg; read-out: Inhibition Zone Ef
[1] = test system: Y. pseudotuberculosis ATCC 911; assay: microbe, parasite or virus in culture; assay type: cell-based; conditions: Yersinia pseudotuberculosis, ATCC911, 18 h, read-out: Inhibition Zone Yp
B. cereus 709 Roma = assay: Agar-well diffusion antimicrobial screening; assay type: cell-based; conditions: Bacillus cereus, 50 μL of DMSO stock (concentration in c1) per 5 mm well, 18 h at 35 °C, standard ampicillin 10 μg, read-out: Inhibition Zone Bc
E. coli ATCC 35218 = assay: Agar-well diffusion antimicrobial screening; assay type: cell-based; conditions: Escherichia coli, ATCC35218, 18 h, read-out: Inhibition Zone Ec
S. aureus ATCC 25923 = assay: Agar-well diffusion antimicrobial screening; assay type: cell-based; conditions: Staphylococcus aureus, ATCC25923; 50 μL of DMSO stock (concentration in c1) per 5 mm well, 18 h at 35 °C; standard ampicillin 10 μg; read-out: Inhibition Zone Sa
P. aeruginosa ATCC 10145 = assay: Agar-well diffusion antimicrobial screening; assay type: cell-based; conditions: Pseudomonas aeruginosa, ATCC10145; 50 μL of DMSO stock (concentration in c1) per 5 mm well, 18 h at 35 °C; standard ampicillin 10 μg; read-out: Inhibition Zone Pa
[2] = Superoxide radical scavenging assay (NBT photo reduction method); conditions: pH 7.8, 30 °C, 10 min, 560 nm, mean ± S.D., triplicate
Experimental: Superoxide scavenging activity of the compounds and reference were tested in a non-enzymatic superoxide radical (O2^−•) generation assay using a modified spectrophotometrical nitro blue tetrazolium (NBT) photo reduction method. The total volume of the assay mixtures containing riboflavin (2 μM), methionine (13 mM), NBT ([…]), EDTA (0.1 mM), and the test samples (50 mM phosphate buffer, pH = 7.8) was 1 mL. After illuminating with a fluorescent lamp at 30 °C for 10 min., the absorbance of the samples (Asample) was measured at 560 nm. Assay mixture without the compound was used as control (control absorbance, Acontrol). All experiments were carried out in triplicate and results were expressed as the mean ± standard deviation (S.D.). Free O2^−• radical scavenging effect was calculated using Equation (1).

[3] = molecular target: T1, Electric eel acetyl-cholinesterase enzyme (AchE, Type-VI-S; EC 3.1.1.7) (Electrophorus electricus, UniProt O42275); assay: biochemical; conditions: mean ± S.D. of three independent experiments; Tris-HCl pH 8.00, 412 nm
T1 construct: purchased Sigma-Aldrich Type-VI-S
Experimental: Firstly, all of the compounds stock solution in DMF (1 × 10^−3 M) were prepared and then five different concentrations were prepared from stock solution in buffer (Tris-HCI pH 8.00) for experiments. Briefly 50 µL of 50 mM Tris-HCl buffer (pH 8.00), 125 µL of 3 mM DTNB (in buffer), 25 µL of 0.2 U/mL AChE and 25 µL of sample dissolved in buffer and incubated for 15 min. at 25 °C. Fifteen minutes later, 25 µL of 15 mM acetyl thiocholine iodide were added and incubated 5 min. at room temperature. The reaction was initiated by the addition of acetylcholine iodide. The hydrolysis of this substrate was monitored by the formation of the yellow 5-thio-2-nitrobenzoate anion as a result of the reaction DTNB with thiocholine, catalized by enzyme at a wave length of 412 nm using a 96-well microplate reader (Multiskan Go UV-spectrophotometer, Thermo Fisher Scientific Oy Ratastie 2, Vantaa, Finland).
Inhibition of AChE was calculated by the comparison of reaction rates of the samples relative to the blank sample (DMF in phosphate buffer pH = 8) using the Equation (1) where Acontrol is the activity of enzyme without test sample and Asample is the activity of enzyme with test sample: (1) Scavenging effects (%)=[(Acontrol−Asample)/Acontrol]×100
The experiments were carried out in triplicate and IC50 values were examined.

[4] = DPPH radical scavenging assay; conditions: 0.1 mM methanolic DPPH, 30 min in the dark, 517 nm; mean ± S.D., triplicate
Experimental: Some 1,2,3-triazole compounds are known to act either as inhibitors of free radical production or as radical scavengers. Therefore, the potential antioxidant property of the new 1,2,3-trizole compounds was evaluated by determining their DPPH and SOD radical scavenging ability. DPPH is a stable free radical that accepts an electron or hydrogen radical to become a stable species. Due to its odd electron, DPPH gives a strong absorption band at 517 nm. Antioxidants are suitable reducing agents and neutralize the free radicals by pairing the DPPH odd electron with a hydrogen atom, and the DPPH solution turns yellow, observed as the decrease in absorbance at 517 nm.
The compounds were tested for in vitro antioxidant activities by the 2,2-diphenyl-1-picrylhydrazyl (DPPH) free radical scavenging assay method. The total volume of the assay mixtures containing methanolic DPPH solution (0.1 mM) and different concentrations of samples was 1 mL. After incubation in the dark at room temperature for 30 min., absorbance of the samples (Asample) was measured at 517 nm. Assay mixture without compound was used as control (control absorbance, Acontrol). All experiments were carried out in triplicate and results were expressed as the mean ±standard deviation (S.D.). Butylatedhydroxyanisole (BHA) were used as the reference compound. Free radical scavenging effect was calculated using Equation (1).

S. cerevisiae RSKK 251 = assay: Agar-well diffusion antimicrobial screening; assay type: cell-based, Saccharomyces cerevisiae
C. albicans ATCC 60193 = assay: Agar-well diffusion antimicrobial screening; assay type: cell-based, Candida albicans; conditions: Candida albicans, ATCC60193, 18 h, read-out: Inhibition Zone Ca
M. smegmatis ATCC607 = assay: Agar-well diffusion antimicrobial screening; assay type: cell-based, Mycobacterium smegmatis; conditions: Mycolicibacterium smegmatis, ATCC607, 72 h; 50 μL of DMSO stock (concentration in c1) per 5 mm well, BHI agar, 3 days at 35 °C; standard streptomycin 10 µg; read-out: Inhibition Zone Ms

T1 sequence (O42275 24-633): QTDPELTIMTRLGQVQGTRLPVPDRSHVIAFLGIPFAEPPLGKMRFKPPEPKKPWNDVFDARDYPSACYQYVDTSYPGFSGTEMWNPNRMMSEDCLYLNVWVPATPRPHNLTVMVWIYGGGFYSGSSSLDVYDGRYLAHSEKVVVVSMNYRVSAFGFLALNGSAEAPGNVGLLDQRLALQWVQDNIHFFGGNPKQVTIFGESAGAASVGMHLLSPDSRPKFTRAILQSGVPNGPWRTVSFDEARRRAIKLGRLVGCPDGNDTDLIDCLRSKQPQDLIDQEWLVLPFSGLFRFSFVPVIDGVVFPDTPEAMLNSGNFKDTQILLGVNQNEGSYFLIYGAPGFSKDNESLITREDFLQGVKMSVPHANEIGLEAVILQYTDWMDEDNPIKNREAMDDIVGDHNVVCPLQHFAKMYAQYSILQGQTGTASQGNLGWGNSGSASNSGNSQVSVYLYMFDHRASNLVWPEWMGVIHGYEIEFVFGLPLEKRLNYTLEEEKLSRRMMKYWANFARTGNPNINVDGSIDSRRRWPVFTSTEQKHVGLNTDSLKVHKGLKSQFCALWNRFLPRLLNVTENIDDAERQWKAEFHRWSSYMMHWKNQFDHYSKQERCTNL

CC1(C)S[C@@H]2[C@H](NC(=O)[C@H](N)c3ccccc3)C(=O)N2[C@H]1C(=O)O [Amp, Ampicillin]
zone of inhibition at 10 µg/disc (E. faecalis ATCC 29212): 35 mm
zone of inhibition at 10 µg/disc [1]: 10 mm
zone of inhibition at 10 µg/disc (B. cereus 709 Roma): 15 mm
zone of inhibition at 10 µg/disc (E. coli ATCC 35218): 10 mm
zone of inhibition at 10 µg/disc (S. aureus ATCC 25923): 10 mm
zone of inhibition at 10 µg/disc (P. aeruginosa ATCC 10145): 18 mm

COc1cc(C(C)=O)ccc1OCc1cn(CCCCCCn2cc(COc3ccc(C(C)=O)cc3OC)nn2)nn1 [Compound 3d, 1-(4-((1-(6-(4-((4-Acetyl-2-methoxyphenoxy)methyl)-1H-1,2,3-triazol-1-yl)hexyl)-1H-1,2,3-triazol-4-yl)-methoxy)-2-methoxyphenyl)ethan-1-onen]
SOD IC50 [2]: 128.24 (±0.10) µg/mL
IC50 [3]: 75.7 µM
DPPH IC50 [4]: 149.21 (±0.06) µg/mL
Inhibition Zone Sc (S. cerevisiae RSKK 251): -

OC(Cn1cncn1)(Cn1cncn1)c1ccc(F)cc1F [Flu., Fluconazole, reference compound]
zone of inhibition at 5 µg/disc (C. albicans ATCC 60193): 25 mm
zone of inhibition at 5 µg/disc (S. cerevisiae RSKK 251; Saccharomyces cerevisiae, RSKK251, 50 μL of DMSO stock (concentration in c1) per 5 mm well, 18 h at 35 °C, standard fluconazole 5 μg, read-out: Inhibition Zone Sc): 25 mm

[H]/N=C(/N)N[C@H]1[C@H](O)[C@@H](O)[C@H](O[C@@H]2O[C@@H](C)[C@](O)(C=O)[C@H]2O[C@@H]2O[C@@H](CO)[C@H](O)[C@@H](O)[C@@H]2NC)[C@@H](N/C(N)=N\[H])[C@@H]1O [Strep, Streptomycin]
zone of inhibition at 10 µg/disc (M. smegmatis ATCC607): 35 mm

Reference: publication PMC6274262, “Synthesis of Novel Symmetrical 1,4-Disubstituted 1,2,3-Bistriazole Derivatives via ‘Click Chemistry’ and Their Biological Evaluation” (Molecules, 2016)
